Publication PMC11629774 (Science (New York, N.Y.), 2024)

Tested on: primary human tonsillar lymphocytes
Test: Toxicity in primary human tonsillar lymphocytes at 72 hours
Format: cell-based
Settings: Lymphocyte, read-out: EC50 toxicity

CC(C)(C)c1cnc(CSc2cnc(NC(=O)C3CCNCC3)s2)o1 [SNS-032]
EC50: ~150 nM

CC(C)(C)c1cnc(CSc2cnc(NC(=O)C3CCN(CC(=O)NCCOCCOCCOCCNc4cccc5c4C(=O)N(C4CCC(=O)NC4=O)C5=O)CC3)s2)o1 (centres unmarked) [THAL-SNS-032]
EC50: ~15 nM
